Assay results taken from patent US6737383B1, “Herbicidal oxadiazolidines” (priority 1999, dated 2004).

Assays:
[1] = tested on: blackgrass; assay: Test B pre/postemergence blackgrass; assay type: in vivo, Alopecurus myosuroides
In short: (§1)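 Response is a visual 0-to-10 score relative to untreated plants, where 0 means no effect and 10 means complete control, taken twelve to sixteen days after application. Treatments went onto soil at planting and onto foliage of 1- to 4-leaf plants, using a surfactant-containing non-phytotoxic solvent.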

[2] = tested on: purple nutsedge; assay: Test B pre/postemergence purple nutsedge; assay type: in vivo, Cyperus rotundus
In short: as §1

[3] = tested on: velvetleaf; assay: Test B pre/postemergence velvetleaf; assay type: in vivo, Abutilon theophrasti
In short: as §1

[4] = tested on: wild oat; assay: Test B pre/postemergence wild oat; assay type: in vivo, Avena fatua
In short: as §1

[5] = tested on: corn; assay: Test B pre/postemergence corn; assay type: in vivo, Zea mays
In short: as §1

[6] = tested on: cocklebur; assay: Test B pre/postemergence cocklebur; assay type: in vivo, Xanthium strumarium
In short: as §1

[7] = tested on: rape; assay: Test B pre/postemergence rape; assay type: in vivo, Brassica napus
In short: as §1

[8] = tested on: bedstraw; assay: Test B pre/postemergence bedstraw; assay type: in vivo, Galium aparine
In short: as §1

[9] = tested on: wheat; assay: Test B pre/postemergence wheat; assay type: in vivo, Triticum aestivum
In short: as §1

[10] = tested on: surinam grass; assay: Test B pre/postemergence surinam grass; assay type: in vivo, Brachiaria decumbens
In short: as §1

[11] = tested on: soybean; assay: Test B pre/postemergence soybean; assay type: in vivo, Glycine max
In short: as §1

[12] = tested on: crabgrass; assay: Test B pre/postemergence crabgrass; assay type: in vivo, Digitaria sanguinalis
In short: as §1

[13] = tested on: sugar beet; assay: Test B pre/postemergence sugar beet; assay type: in vivo, Beta vulgaris
In short: as §1

[14] = Postemergence, Rate 125 g/ha, scale of 0 to 10 where 0 is no effect and 10 is complete control
[15] = Preemergence, Rate 62 g/ha, scale of 0 to 10 where 0 is no effect and 10 is complete control
[16] = Preemergence, Rate 250 g/ha, scale 0 to 10, 0 is no effect, 10 is complete control
[17] = Preemergence, Rate 500 g/ha, scale 0 to 10 (0 no effect, 10 complete control)
[18] = Rate 62 g/ha, Postemergence, scale of 0 to 10 where 0 is no effect and 10 is complete control
[19] = Rate 250 g/ha, Postemergence, scale 0 to 10, 0 is no effect, 10 is complete control
[20] = Rate 500 g/ha, Postemergence, scale 0 to 10
[21] = Preemergence, Rate 125 g/ha, 0 is no effect, 10 is complete control

`CC1CCCCC1n1c(=O)on(C(=O)N(c2ccc(F)cc2)C(C)C)c1=O` (stereo not shown) [Compound 161] was tested, and the “Blackgrass plant response rating” value [1, 14] was 0, the “Blackgrass plant response rating” value [1, 15] was 3 and the “Blackgrass plant response rating” value [1, 16] was 7. The “Blackgrass plant response rating” value [1, 17] was 9, the “Blackgrass plant response rating” value [1, 18] was 0 and the “Plant response rating, Blackgrass” value [1, 19] was 3. The “Blackgrass plant response rating” value [1, 20] was 4, the “Nutsedge plant response rating” value [2, 14] was 0 and the “Nutsedge plant response rating” value [2, 15] was 0. For the same compound, the “Nutsedge plant response rating (0 to 10 scale)” value [2, 21] was 0, the “Nutsedge plant response rating” value [2, 16] was 0 and the “Nutsedge plant response rating” value [2, 17] was 0. For the same compound, the “Nutsedge plant response rating” value [2, 18] was 0, the “Plant response rating, Nutsedge” value [2, 19] was 0 and the “Nutsedge plant response rating” value [2, 20] was 0. For the same compound, the “Velvetleaf plant response rating” value [3, 15] was 0, the “Velvetleaf plant response rating (0 to 10 scale)” value [3, 21] was 0 and the “Velvetleaf plant response rating” value [3, 16] was 0. For the same compound, the “Velvetleaf plant response rating” value [3, 17] was 0, the “Plant response rating, Velvetleaf” value [3, 19] was 2 and the “Velvetleaf plant response rating” value [3, 20] was 6. The “Wild oats plant response rating” value [4, 15] was 0, the “Wild oats plant response rating (0 to 10 scale)” value [4, 21] was 0 and the “Wild oats plant response rating” value [4, 16] was 3. For the same compound, the “Wild oats plant response rating” value [4, 17] was 6, the “Plant response rating, Wild oats” value [4, 19] was 0 and the “Wild oats plant response rating” value [4, 20] was 0. The “Corn plant response rating” value [5, 14] was 0, the “Corn plant response rating” value [5, 15] was 0 and the “Corn plant response rating (0 to 10 scale)” value [5, 21] was 0. The “Corn plant response rating” value [5, 16] was 0, the “Corn plant response rating” value [5, 17] was 0 and the “Corn plant response rating” value [5, 18] was 0. For the same compound, the “Plant response rating, Corn” value [5, 19] was 0, the “Corn plant response rating” value [5, 20] was 0 and the “Cocklebur plant response rating” value [6, 14] was 0. For the same compound, the “Cocklebur plant response rating” value [6, 15] was 0, the “Cocklebur plant response rating (0 to 10 scale)” value [6, 21] was 0 and the “Cocklebur plant response rating” value [6, 16] was 0. For the same compound, the “Cocklebur plant response rating” value [6, 17] was 0, the “Cocklebur plant response rating” value [6, 18] was 0 and the “Plant response rating, Cocklebur” value [6, 19] was 0. For the same compound, the “Cocklebur plant response rating” value [6, 20] was 3, the “Rape plant response rating” value [7, 14] was 0 and the “Rape plant response rating” value [7, 15] was 0. For the same compound, the “Rape plant response rating (0 to 10 scale)” value [7, 21] was 0, the “Rape plant response rating” value [7, 16] was 0 and the “Rape plant response rating” value [7, 17] was 3. For the same compound, the “Rape plant response rating” value [7, 18] was 0, the “Plant response rating, Rape” value [7, 19] was 0 and the “Rape plant response rating” value [7, 20] was 4. The “Bedstraw plant response rating” value [8, 14] was 3, the “Bedstraw plant response rating” value [8, 15] was 0 and the “Bedstraw plant response rating (0 to 10 scale)” value [8, 21] was 0. For the same compound, the “Bedstraw plant response rating” value [8, 16] was 0, the “Bedstraw plant response rating” value [8, 17] was 0 and the “Bedstraw plant response rating” value [8, 18] was 0. For the same compound, the “Plant response rating, Bedstraw” value [8, 19] was 4, the “Bedstraw plant response rating” value [8, 20] was 4 and the “Wheat plant response rating” value [9, 15] was 0. For the same compound, the “Wheat plant response rating (0 to 10 scale)” value [9, 21] was 0, the “Wheat plant response rating” value [9, 16] was 0 and the “Wheat plant response rating” value [9, 17] was 2. The “Plant response rating, Wheat” value [9, 19] was 0, the “Wheat plant response rating” value [9, 20] was 0 and the “B. signalgrass plant response rating” value [10, 14] was 0. The “B. signalgrass plant response rating” value [10, 15] was 0, the “B. signalgrass plant response rating (0 to 10 scale)” value [10, 21] was 0 and the “B. signalgrass plant response rating” value [10, 16] was 5. For the same compound, the “B. signalgrass plant response rating” value [10, 17] was 5, the “B. signalgrass plant response rating” value [10, 18] was 0 and the “Plant response rating, B. signalgrass” value [10, 19] was 2. For the same compound, the “B. signalgrass plant response rating” value ([10]; Rate 500 g/ha, Postemergence, scale 0 to 10, 0 no effect, 10 complete control) was 7, the “Soybean plant response rating” value [11, 14] was 2 and the “Soybean plant response rating” value [11, 15] was 0. For the same compound, the “Soybean plant response rating (0 to 10 scale)” value [11, 21] was 0, the “Soybean plant response rating” value [11, 16] was 0 and the “Soybean plant response rating” value [11, 17] was 0. For the same compound, the “Soybean plant response rating” value [11, 18] was 2, the “Plant response rating, Soybean” value [11, 19] was 4 and the “Soybean plant response rating” value [11, 20] was 4. The “Crabgrass plant response rating” value [12, 14] was 2, the “Crabgrass plant response rating” value [12, 15] was 4 and the “Crabgrass plant response rating (0 to 10 scale)” value [12, 21] was 8. The “Crabgrass plant response rating” value [12, 16] was 9, the “Crabgrass plant response rating” value [12, 17] was 9 and the “Crabgrass plant response rating” value [12, 18] was 0. For the same compound, the “Plant response rating, Crabgrass” value [12, 19] was 7, the “Crabgrass plant response rating” value [12, 20] was 9 and the “Sugarbeets plant response rating” value [13, 14] was 2. The “Sugarbeets plant response rating” value [13, 15] was 0, the “Sugarbeets plant response rating (0 to 10 scale)” value [13, 21] was 0 and the “Sugarbeets plant response rating” value [13, 16] was 0. For the same compound, the “Sugarbeets plant response rating” value [13, 17] was 0, the “Sugarbeets plant response rating” value [13, 18] was 0 and the “Plant response rating, Sugarbeets” value [13, 19] was 4. The “Sugarbeets plant response rating” value [13, 20] was 7.
